From patent publication US8178579B2, “Dioxanes and uses thereof” (President and Fellows of Harvard College, priority 2001, dated 2012) come the findings set out here.

One assay deals with HT-1080 cells. Put plainly: F-actin staining by fluorescence microscopy. In kind it is cell-based. The conditions noted are these: human fibrosarcoma cells, 20 μM, 39 h. Here is the method:
Detection of acetylated α-tubulin and acetylated histones by immunofluorescence was performed as described in Example 6 above. For determining microtubule stability, A549 cells were treated as indicated, fixed in glutaraldehyde, and stained for acetylated α-tubulin and total α-tubulin in antibody dilution buffer (ADB, Tris-buffered saline (TBS), 0.15 M NaCl, 0.02 M Tris-Cl, pH 7.4, with 2% bovine serum albumin and 0.1% Triton-X 100). For cold-depolymerization, cells were incubated at 4° C. or 37° C. for an additional 90 minutes before fixation. […] For co-localization experiments, biotubacin (50 μM) treated A549 cells were fixed in 3.7% formaldehyde in TBS and processed as for detecting acetylated α-tubulin (See Example 6 above) with biotubacin detected using streptavidin-TR (1:500). HDAC6 was detected using a rabbit polyclonal antibody (1:250-1:750; C.M.G., unpublished data) under the conditions used to detect acetylated α-tubulin (See Example 6 above). Filamentous actin in HT-1080 cells was detected using TR-conjugated phalloidin (1 μg/mL), and depolymerized actin using FITC-conjugated deoxyribonuclease (10 μg/mL), following fixation in 3.7% formaldehyde in TBS. p58 (1:100) in NIH-3T3 cells was detected after fixation in 3.7% formaldehyde in TBS. […]

The next assay addresses T1, HDAC6 (Homo sapiens, UniProt Q9UBN7).
T1 sequence (Q9UBN7 1-1215): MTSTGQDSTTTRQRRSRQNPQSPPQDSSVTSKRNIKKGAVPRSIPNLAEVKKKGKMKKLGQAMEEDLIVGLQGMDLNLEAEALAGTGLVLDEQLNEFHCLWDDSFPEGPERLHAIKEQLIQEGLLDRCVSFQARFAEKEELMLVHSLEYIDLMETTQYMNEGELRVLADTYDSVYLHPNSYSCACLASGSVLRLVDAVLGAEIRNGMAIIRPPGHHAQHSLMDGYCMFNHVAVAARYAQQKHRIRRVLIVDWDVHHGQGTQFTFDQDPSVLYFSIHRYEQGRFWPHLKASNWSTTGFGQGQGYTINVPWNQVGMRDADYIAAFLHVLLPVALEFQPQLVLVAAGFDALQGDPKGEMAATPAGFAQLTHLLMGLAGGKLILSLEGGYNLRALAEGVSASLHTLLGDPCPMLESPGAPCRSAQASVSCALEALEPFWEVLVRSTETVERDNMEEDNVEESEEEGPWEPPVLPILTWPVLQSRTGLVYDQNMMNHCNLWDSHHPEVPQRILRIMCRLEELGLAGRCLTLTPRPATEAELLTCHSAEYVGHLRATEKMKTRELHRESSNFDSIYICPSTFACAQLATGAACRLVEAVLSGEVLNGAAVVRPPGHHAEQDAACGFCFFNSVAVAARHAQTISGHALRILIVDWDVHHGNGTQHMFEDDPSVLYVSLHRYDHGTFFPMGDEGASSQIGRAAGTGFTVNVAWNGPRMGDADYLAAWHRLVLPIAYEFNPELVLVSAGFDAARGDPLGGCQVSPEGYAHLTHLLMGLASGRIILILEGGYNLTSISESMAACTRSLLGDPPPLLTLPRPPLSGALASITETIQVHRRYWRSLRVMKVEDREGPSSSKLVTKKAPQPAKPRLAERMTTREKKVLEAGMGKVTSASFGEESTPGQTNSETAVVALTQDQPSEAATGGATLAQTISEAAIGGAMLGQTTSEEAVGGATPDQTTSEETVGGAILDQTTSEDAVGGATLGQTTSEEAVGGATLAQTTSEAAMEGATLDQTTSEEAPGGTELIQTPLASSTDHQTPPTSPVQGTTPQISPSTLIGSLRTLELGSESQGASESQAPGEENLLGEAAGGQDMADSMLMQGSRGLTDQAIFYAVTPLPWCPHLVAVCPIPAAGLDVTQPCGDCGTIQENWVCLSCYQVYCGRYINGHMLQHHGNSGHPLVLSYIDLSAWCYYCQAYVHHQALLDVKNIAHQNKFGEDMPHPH
Briefly: in vitro enzyme inhibition assay (Fluor de Lys deacetylation) of HDAC1, 4 and 6. Format: biochemical. More on the design: endogenous in cells; host or cells: A549 cells. The note with it: in vitro enzyme inhibition (FIG. 13).

Assay [1] concerns microtubules in A549 cells. Briefly: microtubule stability to nocodazole, cold or calcium depolymerization and repolymerization. In kind it is cell-based, human. The conditions noted are these: tubacin 2 μM. Here is the method: Detection of acetylated α-tubulin and acetylated histones by immunofluorescence was performed as described in Example 6 above. For determining microtubule stability, A549 cells were treated as indicated, fixed in glutaraldehyde, and stained for acetylated α-tubulin and total α-tubulin in antibody dilution buffer (ADB, Tris-buffered saline (TBS), 0.15 M NaCl, 0.02 M Tris-Cl, pH 7.4, with 2% bovine serum albumin and 0.1% Triton-X 100). For cold-depolymerization, cells were incubated at 4° C. or 37° C. for an additional 90 minutes before fixation. For calcium depolymerization, cells were incubated at 37° C. for 10 minutes in a microtubule-stabilizing buffer (0.2% NP-40, 5 mM MgCl2, 2 mM EGTA, 2 M glycerol, 100 mM PIPES, pH 6.8) with and without the addition of CaCl2 (2 mM) before glutaraldehyde fixation. For co-localization experiments, biotubacin (50 μM) treated A549 cells were fixed in 3.7% formaldehyde in TBS and processed as for detecting acetylated α-tubulin (See Example 6 above) with biotubacin detected using streptavidin-TR (1:500). HDAC6 was detected using a rabbit polyclonal antibody (1:250-1:750; C.M.G., unpublished data) under the conditions used to detect acetylated α-tubulin (See Example 6 above). Filamentous actin in HT-1080 cells was detected using TR-conjugated phalloidin (1 μg/mL), and depolymerized actin using FITC-conjugated deoxyribonuclease (10 μg/mL), following fixation in 3.7% formaldehyde in TBS. p58 (1:100) in NIH-3T3 cells was detected after fixation in 3.7% formaldehyde in TBS. Images for these experiments were collected on a Zeiss LSM510 confocal scanning laser microscope at the appropriate wavelengths using the accompanying software and processed with Adobe Photoshop. Deconvoluted serial images of TSA and DMSO treated A549 cells were obtained by taking sections (8μ) on a Zeiss Axioskop 2 microscope using an AxioCam camera and the accompanying software. Rat hippocampal neuronal cultures were fixed at room temperature for 15 min in phosphate-buffered saline (PBS) containing 4% paraformaldehyde. […]

In a further assay the test system is NIH-3T3 cells. Put plainly: Transwell cell migration assay. In kind it is cell-based, mouse. The conditions noted are these: wild-type (Neo) and HDAC6-overexpressing cells, 22 h; tubacin 2-20 μM, niltubacin 20 μM. On the procedure:
For Transwell migration assays, wild-type or HDAC6 overexpressing NIH-3T3 cells were seeded (150,000 cells/well) in the upper chamber (uncoated polycarbonate membrane, 6.5 mm, 8 μm) in DMEM+ media with compounds added as indicated. After incubation (22 hours), non-migrated cells were removed using cotton swabs and remaining cells stained in Harris Hematoxylin solution. For each treatment, cells within a region (spanning the maximum diameter) of three separate membranes were counted under low magnification on a Leitz Laborlux microscope. For DMSO treatments the average count was ˜600 cells/region. Images were obtained using a Hitachi HV-C12 CCD camera.

Entries after “also recorded” stand apart in the source; their conditions may differ.

On to `O=C(CCCCCCC(=O)Nc1ccc([C@@H]2OC(c3ccc(CO)cc3)C[C@H](CSc3nc(-c4ccccc4)c(-c4ccccc4)o3)O2)cc1)NO` (some centres unmarked) [tubacin], for which the “F-actin microfilaments / actin stress fibers” value in the assay with HT-1080 cells is on record as “increases F-actin microfilaments; also recorded: caused an increase in the abundance of actin stress fibers”. The “selectivity for HDAC6 over HDAC1 and HDAC4” value at HDAC6 came to 3 fold. For the same compound, in assay [1] (ITSA1 50 μM), the “polymerization of microtubules after removal of nocodazole” value was “neither tubacin nor ITSA1 (50 μM; 30 minutes) prevents the repolymerization of microtubules; also recorded: neither tubacin nor ITSA1 prevented the polymerization of microtubules”. In addition, in assay [1] (nocodazole 332 nM, cold 4 °C 90 min, or 2 mM CaCl2), the “stability of microtubules to depolymerization” value is listed as “No effect of tubacin (2 μM) pre-treatment (4 h) on the stability of microtubules to nocodazole; also recorded: Microtubule depolymerization by nocodazole (332 nM; 5 h) is dominant to the effects of tubacin; also recorded: No effect of tubacin on the stability of microtubules to cold-depolymerization; also recorded: no stabilization of microtubules to any of the depolymerizing conditions tested”. Also, the cell migration entry in the assay on NIH-3T3 cells was “inhibited the migration of wild-type (Neo) NIH-3T3 cells; also recorded: inhibited the migration of both wild-type and HDAC6-overexpressing cells”.
